Results published in ChEMBL document CHEMBL1201862, “PubChem BioAssay data set” (2004).
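All cell lines were grown in 96-well plates and treated with compound for 48 hours. GI50: concentration for 50% inhibition of growth.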 Calls of active or inactive are those of the source. Rule as the data show it: active = GI50 up to about 1.1 µM and inactive = higher.

Experiments:
Test in all cases: NCI tumour cell line growth inhibition, 48 h
HT-29 = system: HT-29
CAKI-1 = system: CAKI-1
EKVX = system: EKVX
UO-31 = system: UO-31
MCF7 = system: MCF7
OVCAR-4 = system: OVCAR-4
SNB-19 = system: SNB-19
UACC-257 = system: UACC-257
PC-3 = system: PC-3
DU-145 = system: DU-145
OVCAR-3 = system: OVCAR-3
NCI-H460 = system: NCI-H460
K562 = system: K562
SK-MEL-2 = system: SK-MEL-2
COLO 205 = system: COLO 205
HCC 2998 = system: HCC 2998
MDA-MB-231 = system: MDA-MB-231
RXF 393 = system: RXF 393
NCI-H522 = system: NCI-H522
SK-OV-3 = system: SK-OV-3
SR = system: SR
SK-MEL-28 = system: SK-MEL-28
U-251 = system: U-251
BT-549 = system: BT-549
SF-295 = system: SF-295
SF-539 = system: SF-539
MDA-N = system: MDA-N
HL-60 = system: HL-60
UACC-62 = system: UACC-62
Hs-578T = system: Hs-578T
MDA-MB-435 = system: MDA-MB-435
RPMI-8226 = system: RPMI-8226
LOX IMVI = system: LOX IMVI
MOLT-4 = system: MOLT-4
ACHN = system: ACHN
SK-MEL-5 = system: SK-MEL-5
OVCAR-5 = system: OVCAR-5
OVCAR-8 = system: OVCAR-8
A549 = system: A549
T47D = system: T47D
HCT-15 = system: HCT-15
IGROV-1 = system: IGROV-1
CCRF-CEM = system: CCRF-CEM
NCI-H226 = system: NCI-H226
SF-268 = system: SF-268
SNB-75 = system: SNB-75
SW-620 = system: SW-620
HOP-62 = system: HOP-62
NCI-H23 = system: NCI-H23
HCT-116 = system: HCT-116
TK-10 = system: TK-10
SN12C = system: SN12C
786-0 = system: 786-0
KM12 = system: KM12
Malme-3M = system: Malme-3M
M14 = system: M14
NCI/ADR-RES = system: NCI/ADR-RES
HOP-92 = system: HOP-92
A498 = system: A498

Measured: GI50

COc1cccc(C(=O)Nc2c3ccccc3nc3ccccc23)c1OC
> 100 µM: HCT-15
inactive: HT-29 > 100 µM | CAKI-1 > 100 µM | EKVX > 100 µM | UO-31 2.96 µM | MCF7 > 100 µM | OVCAR-4 > 100 µM | SNB-19 62.2 µM | UACC-257 > 100 µM | PC-3 > 100 µM | DU-145 > 100 µM | OVCAR-3 > 100 µM | NCI-H460 76.2 µM | K562 > 100 µM | SK-MEL-2 > 100 µM | COLO 205 > 100 µM | HCC 2998 > 100 µM | MDA-MB-231 > 100 µM | RXF 393 23.4 µM | NCI-H522 29.2 µM | SK-OV-3 51.9 µM | SR > 100 µM | SK-MEL-28 > 100 µM | U-251 > 100 µM | BT-549 > 100 µM | SF-295 39.1 µM | SF-539 > 100 µM | MDA-N > 100 µM | HL-60 > 100 µM | UACC-62 > 100 µM | Hs-578T 36.8 µM | MDA-MB-435 > 100 µM | RPMI-8226 > 100 µM | LOX IMVI > 100 µM | MOLT-4 > 100 µM | ACHN 45.5 µM | SK-MEL-5 29.2 µM | OVCAR-5 > 100 µM | OVCAR-8 88.9 µM | A549 84.9 µM | T47D > 100 µM | IGROV-1 > 100 µM | CCRF-CEM > 100 µM | NCI-H226 > 100 µM | SF-268 74.1 µM | SNB-75 17.5 µM | SW-620 > 100 µM | HOP-62 45.7 µM | NCI-H23 > 100 µM | HCT-116 > 100 µM | TK-10 > 100 µM | SN12C > 100 µM | 786-0 52.2 µM | KM12 > 100 µM | Malme-3M > 100 µM | M14 > 100 µM | NCI/ADR-RES > 100 µM

CC(=O)OCc1ccc(O)c(C=O)c1
46.5 µM: HCT-15
inactive: HT-29 > 100 µM | CAKI-1 > 100 µM | EKVX 28.4 µM | UO-31 56.8 µM | MCF7 37.9 µM | OVCAR-4 > 100 µM | SNB-19 92.3 µM | UACC-257 > 100 µM | PC-3 88.9 µM | DU-145 > 100 µM | OVCAR-3 > 100 µM | NCI-H460 > 100 µM | K562 73.6 µM | SK-MEL-2 > 100 µM | COLO 205 > 100 µM | HCC 2998 > 100 µM | MDA-MB-231 > 100 µM | RXF 393 > 100 µM | NCI-H522 > 100 µM | SK-OV-3 > 100 µM | SR 60.3 µM | SK-MEL-28 > 100 µM | HOP-92 43.3 µM | U-251 74.8 µM | BT-549 > 100 µM | SF-295 > 100 µM | SF-539 > 100 µM | MDA-N 64.6 µM | HL-60 39.6 µM | UACC-62 71.3 µM | Hs-578T > 100 µM | MDA-MB-435 > 100 µM | RPMI-8226 > 100 µM | LOX IMVI > 100 µM | MOLT-4 38.3 µM | ACHN > 100 µM | SK-MEL-5 > 100 µM | OVCAR-5 > 100 µM | OVCAR-8 96.2 µM | A549 > 100 µM | T47D 51.3 µM | IGROV-1 > 100 µM | CCRF-CEM 46.3 µM | NCI-H226 > 100 µM | SF-268 64.9 µM | SNB-75 > 100 µM | SW-620 > 100 µM | HOP-62 > 100 µM | NCI-H23 > 100 µM | HCT-116 40.4 µM | TK-10 > 100 µM | SN12C 84.3 µM | 786-0 > 100 µM | KM12 > 100 µM | Malme-3M > 100 µM | M14 25.2 µM | NCI/ADR-RES > 100 µM

Cc1c2c(n(Cc3ccccn3)c1C)NN=C(C#N)S2(=O)=O
> 100 µM: HCT-15
inactive: HT-29 > 100 µM | A498 > 100 µM | CAKI-1 > 100 µM | EKVX > 100 µM | UO-31 > 100 µM | MCF7 > 100 µM | OVCAR-4 > 100 µM | SNB-19 > 100 µM | UACC-257 > 100 µM | PC-3 > 100 µM | DU-145 > 100 µM | OVCAR-3 > 100 µM | NCI-H460 > 100 µM | SK-MEL-2 > 100 µM | COLO 205 > 100 µM | HCC 2998 > 100 µM | MDA-MB-231 > 100 µM | NCI-H522 > 100 µM | SK-OV-3 > 100 µM | SR > 100 µM | SK-MEL-28 > 100 µM | HOP-92 > 100 µM | U-251 > 100 µM | BT-549 > 100 µM | SF-295 > 100 µM | SF-539 > 100 µM | MDA-N > 100 µM | UACC-62 > 100 µM | Hs-578T > 100 µM | MDA-MB-435 > 100 µM | LOX IMVI > 100 µM | MOLT-4 > 100 µM | ACHN > 100 µM | SK-MEL-5 > 100 µM | OVCAR-5 > 100 µM | OVCAR-8 > 100 µM | A549 > 100 µM | T47D > 100 µM | IGROV-1 > 100 µM | NCI-H226 > 100 µM | SF-268 > 100 µM | SNB-75 > 100 µM | SW-620 > 100 µM | HOP-62 > 100 µM | NCI-H23 > 100 µM | HCT-116 > 100 µM | TK-10 > 100 µM | SN12C > 100 µM | 786-0 > 100 µM | KM12 > 100 µM | M14 > 100 µM | NCI/ADR-RES > 100 µM

O=C(Nc1ccccc1C(=O)Nc1nccs1)c1ccccc1
inactive: HT-29 4.44 µM | A498 8.51 µM | CAKI-1 21.3 µM | EKVX 36.6 µM | UO-31 7.89 µM | MCF7 12.8 µM | SNB-19 31.9 µM | UACC-257 31 µM | PC-3 2.45 µM | DU-145 13.6 µM | OVCAR-3 3.98 µM | NCI-H460 3.81 µM | K562 11.2 µM | SK-MEL-2 5.22 µM | COLO 205 4.04 µM | HCC 2998 13.5 µM | MDA-MB-231 25.1 µM | NCI-H522 14.3 µM | SK-OV-3 23.2 µM | SR 7.31 µM | SK-MEL-28 20.7 µM | U-251 6.52 µM | BT-549 15.1 µM | SF-295 25.8 µM | SF-539 43 µM | MDA-N 19.5 µM | HL-60 3.82 µM | UACC-62 25.2 µM | Hs-578T 23.9 µM | MDA-MB-435 33.7 µM | RPMI-8226 6.65 µM | LOX IMVI 4.83 µM | MOLT-4 3.44 µM | ACHN 14.3 µM | SK-MEL-5 4.55 µM | OVCAR-5 > 100 µM | OVCAR-8 54.5 µM | A549 12.4 µM | T47D 2.84 µM | IGROV-1 35.8 µM | CCRF-CEM 4.98 µM | NCI-H226 32.5 µM | SF-268 14.6 µM | SNB-75 21.1 µM | SW-620 25.6 µM | HOP-62 16.6 µM | NCI-H23 65.8 µM | HCT-116 12.1 µM | TK-10 25.6 µM | SN12C 59 µM | 786-0 16.4 µM | KM12 6.03 µM | Malme-3M 10.5 µM | M14 19.7 µM | NCI/ADR-RES 6.17 µM
4.37 µM: HCT-15

CC(=O)Oc1ccc2c(c1)O/C(=C\c1ccc(O)cc1)C2=O
> 100 µM: HCT-15
inactive: CAKI-1 > 100 µM | EKVX > 100 µM | UO-31 > 100 µM | MCF7 > 100 µM | OVCAR-4 > 100 µM | SNB-19 > 100 µM | UACC-257 > 100 µM | PC-3 > 100 µM | DU-145 > 100 µM | OVCAR-3 > 100 µM | NCI-H460 > 100 µM | K562 > 100 µM | COLO 205 > 100 µM | HCC 2998 > 100 µM | MDA-MB-231 > 100 µM | RXF 393 > 100 µM | NCI-H522 28.4 µM | SK-OV-3 > 100 µM | SR > 100 µM | SK-MEL-28 > 100 µM | U-251 > 100 µM | BT-549 > 100 µM | SF-295 > 100 µM | SF-539 > 100 µM | MDA-N > 100 µM | HL-60 > 100 µM | UACC-62 > 100 µM | Hs-578T 27.5 µM | MDA-MB-435 > 100 µM | RPMI-8226 > 100 µM | MOLT-4 > 100 µM | ACHN > 100 µM | SK-MEL-5 > 100 µM | OVCAR-8 > 100 µM | A549 > 100 µM | T47D > 100 µM | IGROV-1 > 100 µM | CCRF-CEM > 100 µM | NCI-H226 > 100 µM | SF-268 > 100 µM | SNB-75 > 100 µM | SW-620 > 100 µM | HOP-62 > 100 µM | NCI-H23 > 100 µM | HCT-116 > 100 µM | TK-10 > 100 µM | SN12C > 100 µM | 786-0 > 100 µM | KM12 > 100 µM | M14 > 100 µM | NCI/ADR-RES > 100 µM
